Drawing on US9617283B2, “Bicyclic heterocycle compounds and their uses in therapy” (ASTEX THERAPEUTICS LIMITED, priority 2012, dated 2017), this text covers EC50 and inhibition for 19 compounds.

The subject of test [1] is EVSA-T (human breast carcinoma). The test is described as follows: Anti-proliferative activity, Alamar Blue assay, EVSA-T. Type of test: cell-based. For orientation: Alamar Blue is a resazurin reagent that responds to reducing activity.
The target of test [2] is T1, BIR3 domain of human XIAP (residues 252-350) (Homo sapiens, UniProt P98170).
T1 construct: BIR3 domain of human XIAP (residues 252-350); His-tag (cleaved yes); made in house; host or cells: Escherichia coli
T1 sequence (P98170 252-350): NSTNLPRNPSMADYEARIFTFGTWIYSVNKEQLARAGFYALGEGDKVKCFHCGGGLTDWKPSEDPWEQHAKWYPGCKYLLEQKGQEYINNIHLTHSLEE
Kind of test: XIAP in vitro competitive displacement binding assay (fluorescence polarization). Conditions: 1 h, percent inhibition (PI) at 0.04 μM; read-out: Xiap IC50 or PI μM. A general note: Polarisation of emitted light reports the rotation of a fluorescent probe.

Where [3] appears, read: Homo sapiens, EVSA-T, 72 h, EVSA-T cell line, 72 hours, Alamar Blue; read-out: EVSA-T prolif.
[4] abbreviates: Homo sapiens, EVSA-T; read-out: EC50 in EVSA-T cell line assays.
Where [5] appears, read: Homo sapiens, EVSA-T, read-out: EC50 in EVSA-T cell line assays.
[6] abbreviates: Homo sapiens; EVSA-T cell line, 72 hours, Alamar Blue; read-out: EVSA-T prolif.

SMILES strings stand for the structures. Where a name gives a salt, the structure may show the parent alone. Read-outs that look alike come from different tables or passages of the source.

For `C[C@@H]1CN(CC(=O)N2CC(C)(C)c3ncc(Cc4ccc(F)cc4F)cc32)[C@@H](CN2C(=O)CO[C@@H](C)[C@H]2C)CN1` [Example 100, (5R,6S)-4-{[(2R,5R)-1-(2-{6-[(2,4-Difluorophenyl)methyl]-3,3-dimethyl-1H,2H,3H-pyrrolo[3,2-b]pyridin-1-yl}-2-oxoethyl)-5-methylpiperazin-2-yl]methyl}-5,6-dimethylmorpholin-3-one dihydrochloride], the EC50 is 1.9 nM in test [1] (setting [3]) and below 1000 nM in test [1] (setting [4]). The inhibition at 0.04 µM in test [2] came out at 41%. For `C[C@@H]1CN(CC(=O)N2CC(C)(C)c3ncc(Cc4ccc(F)cc4)cc32)[C@@H](CN2CCC(C)(C)C2=O)CN1` [Example 4, 1-{[(2R,5R)-1-(2-{6-[(4-Fluorophenyl)methyl]-3,3-dimethyl-1H,2H,3H-pyrrolo[3,2-b]pyridin-1-yl}-2-oxoethyl)-5-methylpiperazin-2-yl]methyl}-3,3-dimethylpyrrolidin-2-one dihydrochloride] the same measures were 3 nM, below 1000 nM and 34%. `C[C@@H]1CN(CC(=O)N2CC(C)(C)c3ncc(Cc4ccc(F)cc4F)cc32)[C@@H](CN2Cc3ccc(O)cc3C2=O)CN1` [Example 116, 2-{[(2R,5R)-1-(2-{6-[(2,4-Difluorophenyl)methyl]-3,3-dimethyl-1H,2H,3H-pyrrolo[3,2-b]pyridin-1-yl}-2-oxoethyl)-5-methylpiperazin-2-yl]methyl}-6-hydroxy-2,3-dihydro-1H-isoindol-1-one dihydrochloride]: the inhibition at 0.04 µM in test [2] was determined as 79%. Regarding `C[C@@H]1CN(CC(=O)N2CC(C)(C)c3ncc([C@H](O)c4ccc(F)cc4)cc32)[C@@H](CN2Cc3ccccc3C2=O)CN1` [Example 84, 2-{[(2R,5R)-1-(2-{6-[(R)-(4-Fluorophenyl)(hydroxy)methyl]-3,3-dimethyl-1H,2H,3H-pyrrolo[3,2-b]pyridin-1-yl}-2-oxoethyl)-5-methylpiperazin-2-yl]methyl}-2,3-dihydro-1H-isoindol-1-one dihydrochloride], the EC50 in test [1] (setting [3]) was 150 nM; in test [1] (setting [4]), below 1000 nM. In test [2], the inhibition at 0.04 µM stood at 51%.

Turning to `COC[C@@H]1CN(C[C@H]2CN[C@H](C)CN2CC(=O)N2CC(C)(C)c3ncc(Cc4ccc(F)cc4)cc32)C(=O)CO1` [Example 102, (6S)-4-{[(2R,5R)-1-(2-{6-[(4-Fluorophenyl)methyl]-3,3-dimethyl-1H,2H,3H-pyrrolo[3,2-b]pyridin-1-yl}-2-oxoethyl)-5-methylpiperazin-2-yl]methyl}-6-(methoxymethyl)morpholin-3-one dihydrochloride], the EC50 in test [1] (setting [3]) was 6.9 nM; in test [1] (setting [5]), below 1000 nM. Besides, the inhibition at 0.04 µM in test [2] turned out to be 51%.

With `C[C@@H]1CN(CC(=O)N2CC(C)(C)c3nnc(Cc4ccc(F)cc4F)cc32)[C@@H](CN2Cc3c(O)cccc3C2=O)CN1` [Example 117, 2-{[(2R,5R)-1-(2-{3-[(2,4-Difluorophenyl)methyl]-7,7-dimethyl-5H,6H,7H-pyrrolo[3,2-c]pyridazin-5-yl}-2-oxoethyl)-5-methylpiperazin-2-yl]methyl}-4-hydroxy-2,3-dihydro-1H-isoindol-1-one dihydrochloride], in test [2], the inhibition at 0.04 µM came out at 78%. Turning to `CCCC(F)(F)c1cc2c(nn1)C(C)(C)CN2C(=O)CN1C[C@@H](C)NC[C@@H]1CN1C[C@H](C)OCC1=O` [Example 57, (6S)-4-{[(2R,5R)-1-{2-[3-(1,1-Difluorobutyl)-7,7-dimethyl-5H,6H,7H-pyrrolo[3,2-c]pyridazin-5-yl]-2-oxoethyl}-5-methylpiperazin-2-yl]methyl}-6-methylmorpholin-3-one], the EC50 in test [1] (setting [4]) is below 1000 nM. `C[C@@H]1CN(CC(=O)N2CC(C)(C)c3nnc(Cc4ccc(F)cc4F)cc32)[C@@H](CN2Cc3ccccc3C2=O)CN1` [Example 79, 2-{[(2R,5R)-1-(2-{3-[(2,4-Difluorophenyl)methyl]-7,7-dimethyl-5H,6H,7H-pyrrolo[3,2-c]pyridazin-5-yl}-2-oxoethyl)-5-methylpiperazin-2-yl]methyl}-2,3-dihydro-1H-isoindol-1-one dihydrochloride]: the EC50 was below 1000 nM in test [1] (setting [5]) and 0.2 nM in test [1] (setting [6]). As to `C[C@@H]1CN(CC(=O)N2CC(C)(C)c3nnc(Cc4ccc(F)cc4F)cc32)[C@@H](CN2Cc3ccc(O)cc3C2=O)CN1` [Example 115, 2-{[(2R,5R)-1-(2-{3-[(2,4-Difluorophenyl)methyl]-7,7-dimethyl-5H,6H,7H-pyrrolo[3,2-c]pyridazin-5-yl}-2-oxoethyl)-5-methylpiperazin-2-yl]methyl}-6-hydroxy-2,3-dihydro-1H-isoindol-1-one dihydrochloride], the inhibition at 0.04 µM in test [2] came to 78%.

Regarding `CCCC(F)(F)c1cc2c(cn1)C(C)(C)CN2C(=O)CN1C[C@@H](C)NC[C@@H]1CN1CC(CC)OCC1=O` (single isomer, unassigned) [Example 88, 4-{[(2R,5R)-1-{2-[6-(1,1-Difluorobutyl)-3,3-dimethyl-1H,2H,3H-pyrrolo[3,2-c]pyridin-1-yl]-2-oxoethyl}-5-methylpiperazin-2-yl]methyl}-(R or S)-6-ethylmorpholin-3-one dihydrochloride], the EC50 in test [1] (EVSA-T cell line, 72 hours, Alamar Blue; dihydrochloride; read-out: EVSA-T prolif) was 14 nM; in test [1] (setting [4]), below 1000 nM. For `C[C@@H]1CN(CC(=O)N2CC(C)(C)c3ncc(Cc4ccc(F)cc4)cc32)[C@@H](CN2C(=O)CO[C@@H](C)[C@H]2C)CN1` [Example 25, (5R,6S)-4-{[(2R,5R)-1-(2-{6-[(4-Fluorophenyl)methyl]-3,3-dimethyl-1H,2H,3H-pyrrolo[3,2-b]pyridin-1-yl}-2-oxoethyl)-5-methylpiperazin-2-yl]methyl}-5,6-dimethylmorpholin-3-one, dihydrochloride], the EC50 was 1.9 nM in test [1] (setting [3]) and below 1000 nM in test [1] (setting [4]).

As to `C[C@@H]1CN(CC(=O)N2CC(C)(C)c3nnc(Cc4ccc(F)cc4F)cc32)[C@@H](CN2Cc3ccc(C#N)cc3C2=O)CN1` [Example 114, 2-{[(2R,5R)-1-(2-{3-[(2,4-Difluorophenyl)methyl]-7,7-dimethyl-5H,6H,7H-pyrrolo[3,2-c]pyridazin-5-yl}-2-oxoethyl)-5-methylpiperazin-2-yl]methyl}-3-oxo-2,3-dihydro-1H-isoindole-5-carbonitrile dihydrochloride], in test [1] (setting [6]), the EC50 was 1.4 nM. Same read-out and setting: under `COc1ccc2c(c1)CN(C[C@H]1CN[C@H](C)CN1CC(=O)N1CC(C)(C)c3ncc(Cc4ccc(F)cc4)cc31)C2=O` [Example 94, 2-{[(2R,5R)-1-(2-{6-[(4-Fluorophenyl)methyl]-3,3-dimethyl-1H,2H,3H-pyrrolo[3,2-b]pyridin-1-yl}-2-oxoethyl)-5-methylpiperazin-2-yl]methyl}-5-methoxy-2,3-dihydro-1H-isoindol-1-one dihydrochloride] stands 4.8 nM.

Take `C[C@@H]1CN(CC(=O)N2CC(C)(C)c3ncc(Cc4ccc(F)cc4)cc32)[C@@H](CN2Cc3ncccc3C2=O)CN1` [Example 15, 6-{[(2R,5R)-1-(2-{6-[(4-Fluorophenyl)methyl]-3,3-dimethyl-1H,2H,3H-pyrrolo[3,2-b]pyridin-1-yl}-2-oxoethyl)-5-methylpiperazin-2-yl]methyl}-5H,6H,7H-pyrrolo[3,4-b]pyridin-5-onne dihydrochloride]: the EC50 in test [1] (setting [6]) stood at 0.63 nM.

Regarding `CCCC(F)(F)c1cc2c(nn1)C(C)(C)CN2C(=O)CN1C[C@@H](C)NC[C@@H]1CN1Cc2ncccc2C1=O` [Example 67, 6-{[(2R,5R)-1-{2-[3-(1,1-Difluorobutyl)-7,7-dimethyl-5H,6H,7H-pyrrolo[3,2-c]pyridazin-5-yl]-2-oxoethyl}-5-methylpiperazin-2-yl]methyl}-5H,6H,7H-pyrrolo[3,4-b]pyridin-5-one], the EC50 in test [1] (setting [4]) was below 1000 nM. For `C[C@H]1CC(=O)N(C[C@H]2CN[C@H](C)CN2CC(=O)N2CC(C)(C)c3nnc(Cc4ccc(F)cc4)cc32)C1` [Example 47, (4S)-1-{[(2R,5R)-1-(2-{3-[(4-Fluorophenyl)methyl]-7,7-dimethyl-5H,6H,7H-pyrrolo[3,2-c]pyridazin-5-yl}-2-oxoethyl)-5-methylpiperazin-2-yl]methyl}-4-methylpyrrolidin-2-one dihydrochloride], the EC50 in test [1] (setting [3]) was 2.9 nM; in test [1] (setting [4]) it was below 1000 nM. Turning to `C[C@@H]1CN(CC(=O)N2CC(C)(C)c3ncc(Cc4ccc(F)cc4)cc32)[C@@H](CN2CC(C)(C)OCC2=O)CN1` [Example 97, 4-{[(2R,5R)-1-(2-{6-[(4-Fluorophenyl)methyl]-3,3-dimethyl-1H,2H,3H-pyrrolo[3,2-b]pyridin-1-yl}-2-oxoethyl)-5-methylpiperazin-2-yl]methyl}-6,6-dimethylmopholin-3-one dihydrochloride], the EC50 in test [1] (setting [3]) was 9 nM; in test [1] (setting [4]) it was below 1000 nM. For `C[C@@H]1CN(CC(=O)N2CC(C)(C)c3ncc(Cc4ccc(F)cc4F)cc32)[C@@H](CN2Cc3ccccc3C2=O)CN1` [Example 76, 2-{[(2R,5R)-1-(2-{6-[(2,4-Difluorophenyl)methyl]-3,3-dimethyl-1H,2H,3H-pyrrolo[3,2-b]pyridin-1-yl}-2-oxoethyl)-5-methylpiperazin-2-yl]methyl}-2,3-dihydro-1H-isoindol-1-one dihydrochloride], the EC50 in test [1] (setting [6]) was determined as 2.5 nM. Turning to `C[C@@H]1CN(CC(=O)N2CC(C)(C)c3nnc(Cc4ccc(F)cc4F)cc32)[C@@H](CN2Cc3c(F)cccc3C2=O)CN1` [Example 104, 2-{[(2R,5R)-1-(2-{3-[(2,4-Difluorophenyl)methyl]-7,7-dimethyl-5H,6H,7H-pyrrolo[3,2-c]pyridazin-5-yl}-2-oxoethyl)-5-methylpiperazin-2-yl]methyl}-4-fluoro-2,3-dihydro-1H-isoindol-1-one dihydrochloride], the EC50 in test [1] (setting [6]) is 0.12 nM.
